According to patent US10351530B2, “Arylcyclohexyl pyrazoles as NRF2 regulators” (GlaxoSmithKline Intellectual Property Development Limited, priority 2015, dated 2019):

How the values were obtained:
[1] = tested on: NQO1 specific enzyme activity in BEAS-2B cells; assay: BEAS-2B NQO1 MTT Assay; assay type: cell-based; details: NQO1 specific activity induction
Method in brief: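 BEAS-2B cells exposed to compound for 48 h at 37 °C, 5% CO2, then lysed. NQO1 activity in crude lysate read kinetically by MTT cocktail absorbance at 570 nm over 30 min. pEC50 from ΔOD/min versus log concentration, 3-parameter fit.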

NRF2/Keap1 = target: T1, NRF2/Keap1 (Homo sapiens, UniProt Q14145); assay: NRF2-Keap1 TR-FRET Assay (full length NRF2 and full length Keap1); assay type: binding; details: 25 nM Keap1-FlagHis, 50 nM biotin-NRF2 added
T1 construct: full length NRF2 protein and full length Keap1 protein (Keap1 exists a dimer) are used
Source text: In the NRF2-Keap1 TR-FRET (time-resolved fluorescence resonance energy transfer) assay, full length NRF2 protein and full length Keap1 protein (Keap1 exists a dimer) are used. The assay detects the ability of compound to displace the binding of FlagHis-tagged Keap1 with biotinylated, Avi-tagged NRF2 protein. Biotin-NRF2 binds to streptavidin-europium (a component of the detection mix) and Keap1-FlagHis is recognized by anti-Flag APC (allophycocyanin) antibody (also a component of the detection mix). If binding occurs between the two proteins, there will be an energy transfer from the Eu+3 (donor) at 615 nm to the APC (acceptor) at 665 nm. A potential Keap1 inhibitor will cause a reduction in the TR-FRET signal by interfering with the binding of Keap1 to NRF2.
One hundred nanoliters of 100× compound dose response curves (serial 3-fold dilutions) in DMSO are stamped using an Echo liquid handling system (Labcyte) into 384-well, low volume, black assay plates (Greiner, #784076), with DMSO in columns 6 and 18. The top concentration of compound is located in columns 1 and 13. All reagents are diluted in assay buffer (50 mM Tris, pH 8.0, 5 mM MgCl2, 100 mM NaCl, 0.005% BSA, 1 mM DTT, and 2 mM CHAPS). The BSA, DTT, and CHAPS are added to the assay buffer on the day of assay. Using a Multidrop Combi (Thermo Electron Corporation) equipped with a metal tip dispenser, 5 ul of 25 nM Keap1-FlagHis protein is added to all wells of the compound plate, with the exception of the wells in column 18. Wells in column 18 receive 5 ul of assay buffer instead. Plates are centrifuged at 500 rpm for 1 minute, covered with a plate lid, and incubated at 37° C. for 2.25 hours. Plates are then removed from the incubator and allowed to cool to RT for 15 minutes. Five microliters of 50 nM biotin-NRF2 protein is then added to all wells of the plates and the plates are spun at 500 rpm for 1 minute, followed by incubating at 4° C. for 1.25 hours. The plates are then allowed to warm to RT for 15 minutes, followed by the addition of 10 ul of detection mix (1 nM Streptavidin Eu+ W1024 and 5 ug/ml mouse anti-DYKDDDDK IgG conjugated to SureLight APC antibody; both from Columbia Biosciences) to all wells. Plates are spun at 500 rpm for 1 minute, incubated for 1 hour at RT, and read on an Envision plate reader using a 320 nm excitation filter and 615 nm and 665 nm emission filters. Compound response (% inhibition) and potency (pIC50) are calculated based on the ratio of the two emissions (665 nm/615 nm) and then the transformed data is normalized against controls in the assay (control 1=1% DMSO in the presence of NRF2 and Keap1 protein and control 2=1% DMSO in the absence of protein). Data analysis is handled using the software package Abase XE (Surrey, United Kingdom). The % inhibition values are calculated from the ratio (transformed) data by the equation: 100−(100*(compound response-average control 2)/(average control 1−average control 2)).
For calculation of pIC50s, Abase XE uses a four parameter equation.

T1 sequence (Q14145 whole entry): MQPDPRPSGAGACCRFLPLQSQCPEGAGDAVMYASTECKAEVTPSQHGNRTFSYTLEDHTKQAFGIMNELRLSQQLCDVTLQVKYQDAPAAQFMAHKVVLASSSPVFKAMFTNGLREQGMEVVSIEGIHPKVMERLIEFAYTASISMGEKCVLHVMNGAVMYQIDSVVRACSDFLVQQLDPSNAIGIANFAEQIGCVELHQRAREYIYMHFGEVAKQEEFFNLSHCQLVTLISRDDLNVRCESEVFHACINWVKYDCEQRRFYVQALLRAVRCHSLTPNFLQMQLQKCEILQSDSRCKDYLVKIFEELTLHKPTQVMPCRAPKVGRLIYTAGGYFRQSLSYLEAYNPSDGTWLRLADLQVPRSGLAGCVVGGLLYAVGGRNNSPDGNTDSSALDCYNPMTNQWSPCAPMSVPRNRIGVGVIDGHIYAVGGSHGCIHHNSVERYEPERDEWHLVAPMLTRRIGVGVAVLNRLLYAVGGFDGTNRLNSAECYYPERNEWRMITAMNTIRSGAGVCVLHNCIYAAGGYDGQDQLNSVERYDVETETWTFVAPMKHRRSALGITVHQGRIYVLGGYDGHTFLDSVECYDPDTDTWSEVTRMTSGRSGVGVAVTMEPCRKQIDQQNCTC

| SMILES | IC50 (NRF2/Keap1) | EC50 ([1]; 48 hours) | EC50 ([1]; Homo sapiens, BEAS-2B, 48 h) |
| --- | --- | --- | --- |
| Cn1cc(C2CC2c2c(C(=O)O)cnn2-c2cccc([C@@H]3CCC[C@H](n4ncc5c4C(C)(C)CC5)C3)c2)nn1 (stereo partly drawn) [Example 39, 1-(3-((1R,3S)-3-(6,6-Dimethyl-5,6-dihydrocyclopenta[c]pyrazol-1(4H)-yl)cyclohexyl)phenyl)-5-(2-(1-methyl-1H-1,2,3-triazol-4-yl)cyclopropyl)-1H-pyrazole-4-carboxylic Acid] | 0.01 to 0.1 µM |  | 0.1 to 1 µM |
| Cn1cc(C2CC2c2c(C(=O)O)cnn2-c2cccc([C@H]3CCC[C@H](n4ncc5c4C(C)(C)CC5)C3)c2)nn1 (stereo partly drawn) [Example 40, 1-(3-((1,3-trans)-3-(6,6-Dimethyl-5,6-dihydrocyclopenta[c]pyrazol-1(4H)-yl)cyclohexyl)phenyl)-5-(2-(1-methyl-1H-1,2,3-triazol-4-yl)cyclopropyl)-1H-pyrazole-4-carboxylic Acid] | 0.1 to 1 µM |  | 1 to 10 µM |
| CC1(C)CCc2cnn([C@@H]3CCC[C@@H](c4cccc(-n5ncc(C(=O)O)c5C5CC5)c4)C3)c21 (racemic) [Example 23, 5-Cyclopropyl-1-(3-(t-3-(6,6-dimethyl-5,6-dihydrocyclopenta[c]pyrazol-1(4H)-yl)cyclohexyl)phenyl)-1H-pyrazole-4-carboxylic Acid] | 10 to 100 µM |  | 0.1 to 1 µM |
| CCCCC1CCCN1C(=O)C1CCCC(c2cccc(-n3ncc(C(=O)O)c3C3CC3c3cn(C)nn3)c2)C1 (stereo not drawn) [Example 42, 1-(3-(3-(2-Butylpyrrolidine-1-carbonyl)cyclohexyl)phenyl)-5-(2-(1-methyl-1H-1,2,3-triazol-4-yl)cyclopropyl)-1H-pyrazole-4-carboxylic Acid] | 0.1 to 1 µM |  | 1 to 10 µM |
| O=C(O)c1cnn(-c2cccc(C3=CC(C(=O)N4CCCCCC4)CCC3)c2)c1C1CC1 (stereo not drawn) [Example 19, 1-(5′-(Azepane-1-carbonyl)-2′,3′,4′,5′-tetrahydro-[1,1′-biphenyl]-3-yl)-5-cyclopropyl-1H-pyrazole-4-carboxylic Acid] | 1 to 10 µM |  | 1 to 10 µM |
| O=C(O)c1cnn(-c2cccc(C3CCCC(C(=O)N4CCCC4C4CC4)C3)c2)c1C1CC1 (racemic) [Example 12, 5-cyclopropyl-1-{3-[3-(2-cyclopropylpyrrolidine-1-carbonyl)cyclohexyl]phenyl}-1H-pyrazole-4-carboxylic Acid] | 0.1 to 1 µM |  | 0.1 to 1 µM |
| CC(C)CCC1CCCN1C(=O)C1CCCC(c2cccc(-n3ncc(C(=O)O)c3C3CC3)c2)C1 (racemic) [Example 11, 5-Cyclopropyl-1-(3-{3-[2-(3-methylbutyl)pyrrolidine-1-carbonyl]cyclohexyl}phenyl)-1H-pyrazole-4-carboxylic Acid] | 0.1 to 1 µM |  | 0.1 to 1 µM |
| CCCCC1CCc2cnn([C@@H]3CCC[C@@H](c4cccc(-n5ncc(C(=O)O)c5C5CC5)c4)C3)c21 (stereo partly drawn) [Example 38, 1-(3-((1,3-trans)-3-(6-Butyl-5,6-dihydrocyclopenta[c]pyrazol-1(4H)-yl)cyclohexyl)phenyl)-5-cyclopropyl-1H-pyrazole-4-carboxylic Acid] | 10 to 100 µM | 0.1 to 1 µM |  |
| CCCCC1CCCC1N(C)C(=O)C1CCCC(c2cccc(-n3ncc(C(=O)O)c3C3CC3)c2)C1 (stereo not drawn) [Example 41, 1-(3-(3-((2-Butylcyclopentyl)(methyl)carbamoyl)cyclohexyl)phenyl)-5-cyclopropyl-1H-pyrazole-4-carboxylic Acid] | 1 to 10 µM |  | 0.1 to 1 µM |

Further lines, with some results ahead:

| IC50 (NRF2/Keap1) | SMILES | EC50 ([1]; 48 hours) | EC50 ([1]; Homo sapiens, BEAS-2B, 48 h) |
| --- | --- | --- | --- |
| 0.01 to 0.1 µM | CCOC[C@@H]1CCCN1C(=O)C1CCCC(c2cccc(-n3ncc(C(=O)O)c3C3CC3)c2)C1 (single isomer, unassigned) [Example 18g] | 0.1 to 1 µM |  |
| 0.01 to 0.1 µM | CCCC[C@@H]1CCCN1C(=O)[C@H]1CCC[C@@H](c2cccc(-n3ncc(C(=O)O)c3C3CC3)c2)C1 [Example 17f, 1-{3-[(1R,3S)-3-[(2R)-2-Butylpyrrolidine-1-carbonyl]cyclohexyl]phenyl}-5-cyclopropyl-1H-pyrazole-4-carboxylic Acid] |  | 0.01 to 0.1 µM |
| 0.1 to 1 µM | CCCCC1CCCN1C(=O)C1CCCC(c2cccc(-n3ncc(C(=O)O)c3C3CC3)c2)C1 (racemic) [Example 8c, 1-{3-[3-(2-Butylpyrrolidine-1-carbonyl)cyclohexyl]phenyl}-5-cyclopropyl-1H-pyrazole-4-carboxylic Acid] |  | 0.1 to 1 µM |
